These results are taken from US20090105266A1, “Organic compounds” (priority 2007, published 2009).

T1 sequence (P41594 21-1180 isoform P41594-2 limits assumed): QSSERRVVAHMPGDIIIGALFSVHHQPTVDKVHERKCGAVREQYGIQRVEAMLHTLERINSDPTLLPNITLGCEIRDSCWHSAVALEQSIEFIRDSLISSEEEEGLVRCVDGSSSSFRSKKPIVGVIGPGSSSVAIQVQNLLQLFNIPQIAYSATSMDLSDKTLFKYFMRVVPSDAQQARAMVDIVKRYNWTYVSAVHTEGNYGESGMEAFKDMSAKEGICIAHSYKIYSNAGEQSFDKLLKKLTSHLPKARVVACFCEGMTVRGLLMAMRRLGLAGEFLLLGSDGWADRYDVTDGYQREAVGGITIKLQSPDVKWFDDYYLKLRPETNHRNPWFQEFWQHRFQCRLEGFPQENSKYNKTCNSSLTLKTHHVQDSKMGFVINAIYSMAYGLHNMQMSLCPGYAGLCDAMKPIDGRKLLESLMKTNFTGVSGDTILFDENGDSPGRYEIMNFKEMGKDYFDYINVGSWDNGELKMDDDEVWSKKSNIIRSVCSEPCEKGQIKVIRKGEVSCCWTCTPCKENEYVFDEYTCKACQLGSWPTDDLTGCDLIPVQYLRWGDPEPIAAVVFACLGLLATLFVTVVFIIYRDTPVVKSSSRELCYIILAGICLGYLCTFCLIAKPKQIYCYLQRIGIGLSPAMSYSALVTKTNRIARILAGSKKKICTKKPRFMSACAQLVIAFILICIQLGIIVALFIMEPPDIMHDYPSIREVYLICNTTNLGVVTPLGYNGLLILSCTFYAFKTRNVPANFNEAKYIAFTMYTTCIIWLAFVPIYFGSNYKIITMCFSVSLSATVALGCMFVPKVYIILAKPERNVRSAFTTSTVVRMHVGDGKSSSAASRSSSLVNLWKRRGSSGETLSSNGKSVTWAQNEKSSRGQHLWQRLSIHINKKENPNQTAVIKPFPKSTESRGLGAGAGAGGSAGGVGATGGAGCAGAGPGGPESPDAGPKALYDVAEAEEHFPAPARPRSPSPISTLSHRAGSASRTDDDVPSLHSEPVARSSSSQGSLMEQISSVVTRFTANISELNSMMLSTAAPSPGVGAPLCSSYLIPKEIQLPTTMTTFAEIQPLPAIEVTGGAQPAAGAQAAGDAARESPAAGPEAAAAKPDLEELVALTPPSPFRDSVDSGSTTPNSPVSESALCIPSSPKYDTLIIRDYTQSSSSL

This assay has as its target T1, mGluR5 (Homo sapiens, UniProt P41594).
T1 construct: expressed in transfected cells
Put plainly: inhibition of the glutamate (agonist) induced elevation of the inositol phosphate turnover. The assay is classed as cell-based. To be noted: inhibition of glutamate induced elevation of inositol phosphate turnover at 0.1 μM. The source says:
This can be determined in vitro for example at recombinant human metabotropic glutamate receptors, especially PLC-coupled subtypes thereof such as mGluR5, using different procedures like, for example, measurement of the inhibition of the agonist induced elevation of intracellular Ca^2+ concentration in accordance with L. P. Daggett et al., Neuropharm. Vol. 34, pages 871-886 (1995), P. J. Flor et al., J. Neurochem. Vol. 67, pages 58-63 (1996) or by determination to what extent the agonist induced elevation of the inositol phosphate turnover is inhibited as described by T. Knoepfel et al., Eur. J. Pharmacol. Vol. 288, pages 389-392 (1994), L. P. Daggett et al., Neuropharm. Vol. 67, pages 58-63 (1996) and references cited therein. Isolation and expression of human mGluR subtypes are described in U.S. Pat. No. 5,521,297. Selected agents of the invention show IC50 values for the inhibition of the agonist (e.g. glutamate or quisqualate) induced elevation of intracellular Ca2+ concentration or the agonist (e.g. glutamate or quisqualate) induced inositol phosphate turnover, measured in recombinant cells expressing hmGluR^5a of about 0.1 nM to about 50 μM.
Activity of compounds of the present invention was examined by determination to what extent the agonist induced elevation of the inositol phosphate turnover is inhibited as described by T. Knoepfel et al., Eur. J. Pharmacol. Vol. 288, pages 389-392 (1994), L. P. Daggett et al., Neuropharm. Vol. 67, pages 58-63 (1996) and references cited therein.
The table below represents percentages of inhibition of the glutamate induced elevation of the inositol phosphate turnover at a concentration of 0.1 μM.
The term inhibition denotes the relative decrease from the control value, in per cent. As for `CCCn1c(-c2cnc(Nc3ccc(C)nc3)c(Cl)c2)nc2cc(F)c(F)cc21` [Example 30, [3-Chloro-5-(5,6-difluoro-1-propyl-1H-benzoimidazol-2-yl)-pyridin-2-yl]-(6-methyl-pyridin-3-yl)-amine], the inhibition at 0.1 µM is 99%.

As to `CCCn1c(-c2cnc(Nc3ccccc3F)c(Cl)c2)nc2cccc(Cl)c21` [Example 53, [3-Chloro-5-(7-chloro-1-propyl-1H-benzoimidazol-2-yl)-pyridin-2-yl]-(2-fluoro-phenyl)-amine], the inhibition at 0.1 µM is 95%. Still for that read-out and setting: next, `CCCn1c(-c2cnc(Nc3ccc(C)nc3)c(Cl)c2)nc2cc(C(F)(F)F)ccc21` [Example 21, [3-Chloro-5-(1-propyl-5-trifluoromethyl-1H-benzoimidazol-2-yl)-pyridin-2-yl]-(6-methyl-pyridin-3-yl)-amine]: 65%; `CCCn1c(-c2ccc(Nc3ccc(Cl)cc3)nn2)nc2cccc(Cl)c21` [Example 87, (4-Chloro-phenyl)-[6-(7-chloro-1-propyl-1H-benzoimidazol-2-yl)-pyridazin-3-yl]-amine]: 47%; `CCCn1c(-c2ccc(Nc3ccc(C)cc3)nc2)nc2cccc(Cl)c21` [Example 103, [5-(7-Chloro-1-propyl-1H-benzoimidazol-2-yl)-pyridin-2-yl]-p-tolyl-amine]: 97%.

Turning to `CCCn1c(-c2cnc(Nc3ccc(C)nc3)c(Cl)c2)nc2c(C)cccc21` [Example 25, [3-Chloro-5-(4-methyl-1-propyl-1H-benzoimidazol-2-yl)-pyridin-2-yl]-(6-methyl-pyridin-3-yl)-amine], the inhibition at 0.1 µM was 97%. As to `CCCn1c(-c2cnc(Nc3ccc4nccnc4c3)c(Cl)c2)nc2cccc(Cl)c21` [Example 61, [3-Chloro-5-(7-chloro-1-propyl-1H-benzoimidazol-2-yl)-pyridin-2-yl]-quinoxalin-6-yl-amine], the inhibition at 0.1 µM is 96%. Still for that read-out and setting: in the case of `COc1ccc(Nc2ccc(-c3nc4cccc(Cl)c4n3CC(C)C)cn2)cc1` [Example 110, [5-(7-Chloro-1-isobutyl-1H-benzoimidazol-2-yl)-pyridin-2-yl]-(4-methoxy-phenyl)-amine] it was 95%. `Cc1ccc(Nc2ncc(-c3nc4cccc5c4n3CCC5)cc2Cl)cn1` [Example 31, [3-Chloro-5-(5,6-dihydro-4H-imidazo[4,5,1-ij]quinolin-2-yl)-pyridin-2-yl]-(6-methyl-pyridin-3-yl)-amine]: the inhibition at 0.1 µM is 90%. As to `CCCn1c(-c2cnc(Nc3ccc(OC)cc3)c(Cl)c2)nc2ccc(F)cc21` [Example 66, [3-Chloro-5-(6-fluoro-1-propyl-1H-benzoimidazol-2-yl)-pyridin-2-yl]-(4-methoxy-phenyl)-amine], the inhibition at 0.1 µM was 93%. On the same count and under the same terms, in the case of `CCCn1c(-c2cnc(Nc3ccc(F)c(F)c3)c(Cl)c2)nc2cccc(Cl)c21` [Example 57, [3-Chloro-5-(7-chloro-1-propyl-1H-benzoimidazol-2-yl)-pyridin-2-yl]-(3,4-difluoro-phenyl)-amine] it was 93%. As for `CCCn1c(-c2cnc(Nc3ccc(N)nc3)c(Cl)c2)nc2cccc(Cl)c21` [Example 75e, N-5-[3-Chloro-5-(7-chloro-1-propyl-1H-benzoimidazol-2-yl)-pyridin-2-yl]-pyridine-2,5-diamine], the “mGluR5-activity in [%] inhibition at 0.1 μM” value worked out at 100%. `CCCn1c(-c2ccc(Nc3ccc(Cl)cc3)nc2)nc2cccc(Cl)c21` [Example 101, (4-Chloro-phenyl)-[5-(7-chloro-1-propyl-1H-benzoimidazol-2-yl)-pyridin-2-yl]-amine]: the inhibition at 0.1 µM amounted to 95%.

As to `CCCn1c(-c2ccc(Nc3ccc(C)nc3)nc2)nc2cccc(Cl)c21` [Example 100, [5-(7-Chloro-1-propyl-1H-benzoimidazol-2-yl)-pyridin-2-yl]-(6-methyl-pyridin-3-yl)-amine], the inhibition at 0.1 µM stood at 100%. Regarding `CCCn1c(-c2ccc(Nc3ccc(C)nc3)c(Cl)c2)nc2cccc(Cl)c21` [Example 98, [2-Chloro-4-(7-chloro-1-propyl-1H-benzoimidazol-2-yl)-phenyl]-(6-methyl-pyridin-3-yl)-amine], the inhibition at 0.1 µM came out at 103%. For `CCCn1c(-c2cnc(Nc3cnc4ccccc4c3)c(Cl)c2)nc2cccc(Cl)c21` [Example 63, [3-Chloro-5-(7-chloro-1-propyl-1H-benzoimidazol-2-yl)-pyridin-2-yl]-quinolin-3-yl-amine], the inhibition at 0.1 µM was 28%.

For `CCCn1c(-c2cnc(Nc3ccc(N(C)C)nc3)c(Cl)c2)nc2cccc(Cl)c21` [Example 70, N-5-[3-Chloro-5-(7-chloro-1-propyl-1H-benzoimidazol-2-yl)-pyridin-2-yl]-N2,N-2-dimethyl-pyridine-2,5-diamine], the “mGluR5-activity in [%] inhibition at 0.1 μM” value was 90%.

In the case of `COc1ccc(Nc2ncc(-c3nc4cccc(Cl)c4n3CC(C)C)cc2Cl)cc1` [Example 114b, [3-chloro-5-(7-chloro-1-isobutyl-1H-benzoimidazol-2-yl)-pyridin-2-yl]-(4-methoxy-phenyl)-amine], the inhibition at 0.1 µM is 100%. Still for that read-out and setting: in the case of `CCCCCn1c(-c2cnc(Nc3ccc(C)nc3)c(Cl)c2)nc2ccccc21` [Example 19, [3-Chloro-5-(1-pentyl-1H-benzoimidazol-2-yl)-pyridin-2-yl]-(6-methyl-pyridin-3-yl)-amine] it was 57%; in that of `CCCn1c(-c2cnc(Nc3ccc(C)nc3)c(Cl)c2)nc2ccc(C)c(C)c21` [Example 26, [3-Chloro-5-(6,7-dimethyl-1-propyl-1H-benzoimidazol-2-yl)-pyridin-2-yl]-(6-methyl-pyridin-3-yl)-amine], 98%; in that of `CCCn1c(-c2cnc(Nc3c(F)cccc3F)c(Cl)c2)nc2cccc(Cl)c21` [Example 67, [3-Chloro-5-(7-chloro-1-propyl-1H-benzoimidazol-2-yl)-pyridin-2-yl]-(2,6-difluoro-phenyl)-amine], 42%.

Consider `CCCn1c(-c2cnc(Nc3ccc(N(C)C)nc3)c(Cl)c2)nc2ccccc21` [Example 69, N-5-[3-Chloro-5-(1-propyl-1H-benzoimidazol-2-yl)-pyridin-2-yl]-N2,N-2-dimethyl-pyridine-2,5-diamine], for which the “mGluR5-activity in [%] inhibition at 0.1 μM” value worked out at 32%. On to `CCCn1c(-c2cnc(Nc3ccc(C)nc3)c(Cl)c2)nc2cc(C)ccc21` [Example 22, [3-Chloro-5-(5-methyl-1-propyl-1H-benzoimidazol-2-yl)-pyridin-2-yl]-(6-methyl-pyridin-3-yl)-amine], for which the inhibition at 0.1 µM is 97%. Same read-out and setting: in the case of `CCCn1c(-c2ccc(Nc3ccc(C)nc3)c(Cl)c2)nc2ccc(F)cc21` [Example 115, [2-Chloro-4-(6-Fluoro-1-propyl-1H-benzoimidazol-2-yl)-phenyl]-(6-methyl-pyridin-3-yl)-amine] it was 99%; in that of `CCCn1c(-c2cnc(Nc3ccc(OC)cc3)nc2)nc2ccc(F)cc21` [Example 93, [5-(6-Fluoro-1-propyl-1H-benzoimidazol-2-yl)-pyrimidin-2-yl]-(4-methoxy-phenyl)-amine], 34%. In the case of `CCCn1c(-c2ccc(Nc3ccc(C)cc3)cc2)nc2cccc(Cl)c21` [Example 80, [4-(7-Chloro-1-propyl-1H-benzoimidazol-2-yl)-phenyl]-p-tolyl-amine], the inhibition at 0.1 µM turned out to be 90%. As to `CCCn1c(-c2cnc(Nc3ccc(F)cc3)c(Cl)c2)nc2cccc(Cl)c21` [Example 54, [3-Chloro-5-(7-chloro-1-propyl-1H-benzoimidazol-2-yl)-pyridin-2-yl]-(4-fluoro-phenyl)-amine], the inhibition at 0.1 µM came to 97%.

On to `CCCn1c(-c2cnc(Nc3ccncc3)c(Cl)c2)nc2cccc(Cl)c21` [Example 59, [3-Chloro-5-(7-chloro-1-propyl-1H-benzoimidazol-2-yl)-pyridin-2-yl]-pyridin-4-yl-amine], for which the inhibition at 0.1 µM was 51%. The same measure, in the same setting: in the case of `CCCn1c(-c2ccc(Nc3ccc(Cl)cc3)cc2)nc2cccc(Cl)c21` [Example 81, (4-Chloro-phenyl)-[4-(7-chloro-1-propyl-1H-benzoimidazol-2-yl)-phenyl]-amine] it was 96%. On to `CCCn1c(-c2ccc(Nc3ccc(C)nc3)c(Cl)c2)nc2ccccc21` [Example 94, [2-Chloro-4-(1-propyl-1H-benzoimidazol-2-yl)-phenyl]-(6-methyl-pyridin-3-yl)-amine], for which the inhibition at 0.1 µM stood at 97%.

Regarding `CCCn1c(-c2cnc(Nc3ccc(C)cc3)c(Cl)c2)nc2ccc(F)cc21` [Example 65, [3-Chloro-5-(6-fluoro-1-propyl-1H-benzoimidazol-2-yl)-pyridin-2-yl]-p-tolyl-amine], the inhibition at 0.1 µM was 92%. Still for that read-out and setting: next, `CCCn1c(-c2cnc(Nc3ccc(C)nc3)c(Cl)c2)nc2c(Cl)cccc21` [Example 47, [3-Chloro-5-(4-chloro-1-propyl-1H-benzoimidazol-2-yl)-pyridin-2-yl]-(6-methyl-pyridin-3-yl)-amine]: 100%.
